Laboratory results as given in patent USRE45313E1, “Exendin variant peptides” (priority 1999, dated 2014).

Experiments:
carboxypeptidase A = target: T1, carboxypeptidase A (Bos taurus, UniProt P00730); experiment: In vitro stability in carboxypeptidase A solution; details: pH 7.4
T1 sequence (P00730 111-419): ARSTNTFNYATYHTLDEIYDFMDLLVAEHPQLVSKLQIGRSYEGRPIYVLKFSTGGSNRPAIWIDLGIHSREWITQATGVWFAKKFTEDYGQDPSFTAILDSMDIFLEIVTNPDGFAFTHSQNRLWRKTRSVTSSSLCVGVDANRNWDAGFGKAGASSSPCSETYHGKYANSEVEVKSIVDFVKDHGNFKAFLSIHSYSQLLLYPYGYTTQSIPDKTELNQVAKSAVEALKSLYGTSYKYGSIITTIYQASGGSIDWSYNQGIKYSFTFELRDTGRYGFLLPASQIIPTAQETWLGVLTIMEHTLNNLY
Protocol: (§1) A SHT200D block heater from Stuart Scientific was used for heating of the peptide/enzyme solutions during the stability experiments. The degradation of the test compounds was studied at 37° C. in 50 mM phosphate buffer solutions of pH 7.4 containing leucine aminopeptidase (25 U/ml) or carboxypeptidase A (1 U/ml) or 100 mM ammoniumbicarbonate buffer of pH 8.0 containing dipeptidyl aminopeptidase IV (0.5 U/ml). Experiments were initiated by addition of an aliquot (100 μl) of a stock solution (1 mg/ml) of the peptide in water to 900 μl preheated enzyme solution in an Eppendorf microvial giving an initial concentration of 0.1 mg/ml (˜1.7·10−5-1.8·10−5 M) of the peptide. The peptide/enzyme solution was kept at 37° C. and at appropriate time intervals samples of 100 μl were withdrawn from the peptide/enzyme solution and mixed thoroughly with 20 μl 25% TFA in acetonitrile in order to stop the enzymatic degradation process. The inactivated samples were transferred to autosampler vials and analysed for content of intact test compound by HPLC as described below.
(§2) Samples from the stability experiments performed as described above were analysed by gradient HPLC analysis using the instrumentation described above and the following experimental conditions.
(§3) In vitro stability studies with the present peptides and peptide conjugates in the presence of selected proteolytic enzymes are applied as a tool for evaluating the protection of said peptides against proteolysis in vivo.
(§4) Water used was of highest quality obtained from a Milli-Q water treatment system (Millipore, Bedford, Mass., U.S.A.). Acetonitrile (ACN) was of super gradient quality obtained from Labscan Ltd. (Dublin, Ireland). […] Leucine aminopeptidase (EC 3.4.11.1), Carboxypeptidase A (EC 3.4.17.1) and Dipeptidyl peptidase (Dipeptidyl aminopeptidase IV, EC 3.4.14.5) were all obtained from Sigma (St. Louis, Mo., U.S.A.). Gradient HPLC analysis was done using a Hewlett Packard HP 1100 HPLC system consisting of a HP 1100 Binary Pump, a HP 1100 Autosampler, A HP 1100 Column Thermostat and a HP 1100 Variable Wavelength Detector. Hewlett Packard Chem-station for LC software (Rev. A.06.01) was used for instrument control and data acquisition. A Vydac 238TP54 (150×4.6 mm I.D.) column packed with 5 μm, C18, 300 Å

leucine aminopeptidase = target: T2, leucine aminopeptidase (Sus scrofa, UniProt P28839); experiment: In vitro stability in leucine aminopeptidase solution; details: pH 7.4
T2 sequence (P28839 1-519): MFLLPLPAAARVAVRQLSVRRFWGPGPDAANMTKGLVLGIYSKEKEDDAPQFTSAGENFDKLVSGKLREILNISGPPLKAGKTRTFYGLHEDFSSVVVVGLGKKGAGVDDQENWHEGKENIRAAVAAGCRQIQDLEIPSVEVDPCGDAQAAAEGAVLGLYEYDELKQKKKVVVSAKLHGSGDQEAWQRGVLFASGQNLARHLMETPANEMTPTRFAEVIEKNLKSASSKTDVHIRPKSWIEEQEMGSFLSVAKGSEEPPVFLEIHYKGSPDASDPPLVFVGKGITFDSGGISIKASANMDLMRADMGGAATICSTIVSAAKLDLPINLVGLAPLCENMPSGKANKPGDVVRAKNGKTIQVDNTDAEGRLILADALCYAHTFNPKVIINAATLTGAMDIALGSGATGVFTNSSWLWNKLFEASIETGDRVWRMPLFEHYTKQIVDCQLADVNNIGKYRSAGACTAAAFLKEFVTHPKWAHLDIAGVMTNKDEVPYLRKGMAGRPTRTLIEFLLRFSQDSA
Protocol: as §1, §2, §3, §4

[1] = target: dipeptidyl aminopeptidase IV (Sus scrofa, UniProt P22411); experiment: In vitro stability in dipeptidyl aminopeptidase IV solution; details: pH 8
Protocol: as §1, §2, §3, §4

[2] = target: T3, (Rattus norvegicus, UniProt P32301); details: inhibition of [^125I]GLP-1 binding; cited from earlier work
T3 construct: host or cells: brain tissue: nucleus of the solitary tract
T3 sequence (P32301 22-463): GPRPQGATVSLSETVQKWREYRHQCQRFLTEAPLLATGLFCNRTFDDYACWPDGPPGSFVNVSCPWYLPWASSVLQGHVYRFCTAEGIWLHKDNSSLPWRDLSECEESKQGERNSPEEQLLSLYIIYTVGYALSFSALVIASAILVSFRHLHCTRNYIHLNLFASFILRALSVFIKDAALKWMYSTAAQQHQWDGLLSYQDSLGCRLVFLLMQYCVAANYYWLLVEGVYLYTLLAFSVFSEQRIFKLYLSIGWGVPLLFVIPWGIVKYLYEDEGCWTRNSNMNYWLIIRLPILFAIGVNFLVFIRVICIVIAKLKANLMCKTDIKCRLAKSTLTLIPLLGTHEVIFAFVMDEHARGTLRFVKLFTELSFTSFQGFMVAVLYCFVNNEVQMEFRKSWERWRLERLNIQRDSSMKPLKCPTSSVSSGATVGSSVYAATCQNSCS

dipeptidyl aminopeptidase IV, sequence (P22411 whole entry): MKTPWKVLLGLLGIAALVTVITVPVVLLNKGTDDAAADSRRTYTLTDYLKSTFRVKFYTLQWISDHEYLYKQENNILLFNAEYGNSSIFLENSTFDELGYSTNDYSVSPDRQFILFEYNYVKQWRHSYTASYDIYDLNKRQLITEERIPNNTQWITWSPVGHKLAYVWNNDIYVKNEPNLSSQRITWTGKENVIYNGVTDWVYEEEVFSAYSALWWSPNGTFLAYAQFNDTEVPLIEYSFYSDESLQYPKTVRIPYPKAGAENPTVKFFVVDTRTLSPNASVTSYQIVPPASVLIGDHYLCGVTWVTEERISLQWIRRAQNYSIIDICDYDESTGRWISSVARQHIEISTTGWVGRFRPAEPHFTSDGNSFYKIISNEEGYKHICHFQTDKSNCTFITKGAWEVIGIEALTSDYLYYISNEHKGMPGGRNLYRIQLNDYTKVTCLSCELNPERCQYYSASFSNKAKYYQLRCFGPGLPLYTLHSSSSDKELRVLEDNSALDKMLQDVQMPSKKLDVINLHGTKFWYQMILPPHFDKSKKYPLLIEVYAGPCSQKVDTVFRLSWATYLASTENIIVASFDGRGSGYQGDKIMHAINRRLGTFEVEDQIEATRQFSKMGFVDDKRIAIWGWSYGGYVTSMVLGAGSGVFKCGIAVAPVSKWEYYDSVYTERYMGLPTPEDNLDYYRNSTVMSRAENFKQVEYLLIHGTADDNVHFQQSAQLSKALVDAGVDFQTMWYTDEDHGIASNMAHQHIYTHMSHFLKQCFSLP

Molecule | half-life at 0.1 mg/ml (carboxypeptidase A) [min] | half-life at 0.1 mg/ml (leucine aminopeptidase) [min] | half-life at 0.1 mg/ml [1] [min] | Ki [2] [nM]
CC[C@H](C)[C@H](NC(=O)[C@H](Cc1ccccc1)NC(=O)[C@H](CCC(=O)O)NC(=O)[C@H](CCCCN)NC(=O)[C@H](C)NC(=O)[C@H](C)NC(=O)[C@H](CCC(N)=O)NC(=O)CNC(=O)[C@H](CCC(=O)O)NC(=O)[C@H](CC(C)C)NC(=O)[C@H](Cc1ccc(O)cc1)NC(=O)[C@H](CO)NC(=O)[C@H](CO)NC(=O)[C@@H](NC(=O)[C@H](CC(=O)O)NC(=O)[C@H](CO)NC(=O)[C@@H](NC(=O)[C@H](Cc1ccccc1)NC(=O)[C@@H](NC(=O)CNC(=O)[C@H](CCC(=O)O)NC(=O)[C@H](C)NC(=O)[C@@H](N)Cc1c[nH]cn1)[C@@H](C)O)[C@@H](C)O)C(C)C)C(=O)N[C@@H](C)C(=O)N[C@@H](Cc1c[nH]c2ccccc12)C(=O)N[C@@H](CC(C)C)C(=O)N[C@H](C(=O)N[C@@H](CCCCN)C(=O)NCC(=O)N[C@@H](CCCNC(=N)N)C(N)=O)C(C)C [GLP-1, H-hGLP-1(7-36)-NH2, reference compound] | 48 | 152 | 2 | –
[Tyr39]exendin-4 | – | – | – | 9.4
